The values below come from ChEMBL document CHEMBL6071154, “A patent review of SCF E3 ligases inhibitors for cancer:Structural design, pharmacological activities and structure-activity relationship” (Eur J Med Chem, 2024).

Each structure is given as a SMILES string.

One assay relates to NCI-H358. The assay is described as follows: Antiproliferative activity against human NCI-H358 cells assessed as reduction in cell growth incubated for 72 hrs by CCK-8 assay. Conditions: NCI-H358, 72 h. In kind it is functional, cell-based.
Another assay concerns NCI-H2170. The assay is described as follows: Antiproliferative activity against human NCI-H2170 cells assessed as reduction in cell growth incubated for 72 hrs by CCK-8 assay. In kind it is functional, cell-based. The following applies: NCI-H2170, 72 h.
A further assay relates to HT-1080. The assay is described as follows: Antiproliferative activity against human HT-1080 cells assessed as reduction in cell viability. In kind it is functional, cell-based.
The next assay has as its system A549. The assay is described as follows: Antiproliferative activity against human A549 cells assessed as reduction in cell growth. In kind it is functional, cell-based.
The next assay deals with LNCaP. The assay is described as follows: Antiproliferative activity against human LNCAP cells assessed as reduction in cell viability incubated for 24 hrs by MTT assay. In general terms: Tetrazolium dyes change colour on reduction, which living cells bring about.
In assay [1] the target is S-phase kinase-associated protein 2 (Homo sapiens, UniProt Q13309). In words: Inhibition of SKP2 (unknown origin).
Another assay deals with PC-3. The assay is described as follows: Antitumor activity against human PC-3 cells xenografted in mouse assessed as tumor growth inhibition at 10 mg/kg, po administered once daily relative to control. Type of assay: functional. Set-up: scale not given: the % may be the effect or the level left. A general note: In xenograft studies the graft and the host belong to different species.

Assay [2] can be described thus: Inhibition of NF-kappaB (unknown origin). Set-up: species or system Homo sapiens.
The next assay relates to DU-145. In words: Antiproliferative activity against human DU-145 cells assessed as reduction in cell viability incubated for 48 hrs by CCK8 assay. In kind it is functional, cell-based. The following applies: DU-145, 48 h.
A further assay relates to HGC-27. The assay is described as follows: Antiproliferative activity against human HGC-27 cells assessed as reduction in cell growth incubated for 24 hrs by CCK-8 assay. In kind it is functional, cell-based. The following applies: HGC-27, 24 h.

As a reminder, the IC50 is the concentration at which inhibition is half-maximal.

S-phase kinase-associated protein 2, sequence (Q13309 whole entry): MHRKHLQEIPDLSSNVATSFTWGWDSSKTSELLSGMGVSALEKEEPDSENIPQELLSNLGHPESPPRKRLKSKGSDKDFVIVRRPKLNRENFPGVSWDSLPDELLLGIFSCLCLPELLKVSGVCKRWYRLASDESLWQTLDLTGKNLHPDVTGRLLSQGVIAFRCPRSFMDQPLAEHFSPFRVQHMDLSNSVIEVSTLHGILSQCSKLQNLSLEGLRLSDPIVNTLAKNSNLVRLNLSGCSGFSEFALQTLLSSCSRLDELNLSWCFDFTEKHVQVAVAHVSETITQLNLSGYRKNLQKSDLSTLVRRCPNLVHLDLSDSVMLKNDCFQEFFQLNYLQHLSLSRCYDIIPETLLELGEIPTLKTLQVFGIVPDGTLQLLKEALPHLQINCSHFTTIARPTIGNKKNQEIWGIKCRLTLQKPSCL

Take `O=C(Nc1cc(F)cc(F)c1)Nc1cccc(COc2ncc(Cl)cn2)c1`: the IC50 with NCI-H358 was determined as 5.85 µM; in the assay on NCI-H2170, 5.6 µM.

In the case of `COc1ccc(Oc2cc(NS(=O)(=O)c3ccc(C)cc3)c3ncccc3c2)cc1`, the IC50 in the assay on HT-1080 came out at 0.74 µM; in the assay with A549, 4.09 µM.

`CC(C)(C)c1cc2cc(NC(=O)c3cccs3)ccc2[nH]1`: the IC50 in the assay with LNCaP was 4.63 µM.

As to `Cc1ccc(S(=O)(=O)Nc2cc(Oc3cccc(C#N)c3)cc3cccnc23)cc1`, the half-inhibitory concentration (IC50) with HT-1080 is 6.83 µM; in the assay with A549, 6.48 µM.

The molecule `O=C(CCl)NC1CCN(c2cnc(-c3ccccc3)c(-c3ccccc3)n2)CC1` returned an IC50 in assay [1] of 2.76 µM. Also, the Activity in the assay on PC-3 is 55.68%.

As for `CC(Oc1ccc(C#N)cc1)c1cccc(NC(=O)Nc2cc(F)cc(F)c2)c1` (configuration not stated), the IC50 in the assay on NCI-H358 amounted to 4.73 µM; in the assay on NCI-H2170, 4.47 µM.

With `O=C(Nc1cc(F)cc(F)c1)Nc1cccc(COc2ccc(Cl)cc2)c1`, the IC50 was found to be 7.9 µM with NCI-H358 and 3.19 µM with NCI-H2170.

On to `Cc1ccc(S(=O)(=O)Nc2cc(Oc3cc(F)cc(F)c3)cc3cccnc23)cc1`, for which the IC50 was 0.08 µM in the assay with HT-1080 and 4.11 µM in the assay with A549.

Regarding `N#Cc1ccc(OCc2cccc(NC(=O)Nc3cc(F)cc(F)c3)c2)cc1`, the IC50 in the assay with NCI-H358 was 5.8 µM; in the assay on NCI-H2170, 4.12 µM.

In the case of `O=C(O)c1ccc(N2N=C(Cc3ccccc3)/C(=C\c3ccc(-c4ccccc4F)o3)C2=O)cc1`, the 50% inhibitory concentration (IC50) in assay [2] is 5.2 µM.

On to `O=C(Nc1cc(F)cc(F)c1)Nc1cccc(COc2ccccc2Cl)c1`, for which the IC50 in the assay on NCI-H358 was found to be 8.1 µM; with NCI-H2170 it was 7.93 µM.

For `CCn1nnc2cc(COC(=O)Nc3sc(-c4ccc(C)cc4OC)nc3C)ccc21`, the IC50 in the assay on HT-1080 was 0.00164 µM.

Take `O=C(OCn1ncc(Cl)c(Cl)c1=O)c1cccc(C(F)(F)F)c1`: in the assay on LNCaP, the IC50 was determined as 1.71 µM.

`C/C=C/C(=O)c1c(OC)cc(=O)oc1C`: in the assay with DU-145, the IC50 amounted to 19.7 µM.

On to `O=C(Nc1cc(F)cc(F)c1)Nc1cccc(CNc2ccc(Cl)cc2)c1`, for which the IC50 with NCI-H358 was found to be 6.97 µM; in the assay with NCI-H2170, 7.31 µM.

Regarding `O=C(Nc1cc(F)cc(F)c1)Nc1cccc(COc2ccc(Cl)cc2Cl)c1`, the IC50 in the assay on NCI-H358 amounted to 6.4 µM; with NCI-H2170, 5.55 µM.

For the molecule `CCOc1nc2cccc(C(=O)OCc3oc(=O)oc3C)c2n1Cc1ccc(-c2ccccc2-c2noc(=O)[nH]2)cc1` [AZILSARTAN MEDOXOMIL], the IC50 in the assay with DU-145 stood at 50 µM; in the assay with HGC-27 it was 0.399 µM.

For `COc1cc(C)ccc1-c1nc(C)c(NC(=O)OCc2ccc3c(c2)nc2n3CCOC2)s1`, the IC50 with HT-1080 worked out at 0.00175 µM.

`CS(=O)(=O)c1ccc(CCC(=O)Nc2ccccn2)cc1`: the IC50 in the assay on LNCaP amounted to 3.56 µM.

`CCCCc1ccc(NC(C)=O)c(C)c1`: in the assay on LNCaP, the IC50 was 1.09 µM.
